Test system: CII induced rheumatoid arthritis in DBA mice
Experiment: Collagen type II induced model of rheumatoid arthritis
Conditions: mice in vivo; example 17 up to 40 mg/kg/day; methotrexate 10 mg/kg/day, 3 times a week
Source text: Collagen type II (hereinafter referred as CII) induced experimental model of rheumatoid arthritis (hereinafter referred as RA) in DBA mice is widely accepted as the most relevant and predictive preclinical model for RA. In this model, DBA mice are immunized with CII, the collagen type mainly present in the joint structures, together with complete Freund Adjuvant in their tail. 2 to 3 weeks later, several of the immunized mice start to develop arthritis in the four footpaths. In order to further worsen the disease, mice are given a second CII boost at three weeks after the first immunisation, this time however in a footpath. Because the immune system is already immunised in these mice, this rapidly provokes a severe swelling of the injected footpath (named Delayed Type Hypersensitivity or DTH) which can be used as a measurement for T-cell activation. Within a few days after the booster, almost all untreated animals start developing symptoms of arthritis. RA development is scored from 0 to 16 (16 being severe clinical arthritis in all four footpaths). At the end of the study (3 weeks after the CII boost) antibody formation was determined against CII and histology performed on the footpaths.
The efficiency of the pteridine derivative of example 17 (administered in an amount of 20 mg/kg/day, started one day before the CII boost) was explored in this CII-model.

COc1ccc(-c2cnc3nc(N)nc(N4CCN(C(=O)COc5ccccc5)CC4)c3n2)cc1OC [Example 17, 2-amino-4-[(N-phenoxyacetyl)-piperazin-1-yl]-6-(3,4-dimethoxy-phenyl)pteridine]
mortality or cytotoxic effect on increasing the dose: no mortality or cytotoxic effect
